The source of these data is patent publication US8513027B2, “Method of identifying an inhibitor of the prostanoid EP4 receptor” (Asterand UK Acquisition Limited, priority 1998, dated 2013).

For test [1], the system named is human cerebral artery rings. In words: tone of isolated human cerebral artery rings exposed to prostanoid receptor agonists. Format: cell-based. Conditions: for effect on smaller diameter cerebral artery rings contracted with phenylephrine, TP receptors blocked: phenylephrine 1 μM, GR32191 1 μM in bathing solution. The procedure: Sections of cerebral artery were removed from different regions of preparations of human cerebral vasculature containing an intact circle of Willis. Intact rings of this cerebral artery, 2-3 mm in length, were set up under isometric conditions in 10 ml organ baths under an initial tension of 1 g. All tissues were maintained at 37° C. and gassed constantly with 95% O2/5% CO2. Following a 90 min equilibration period all tissues were challenged with phenylephrine (1 μM), to determine tissue viability. Once a stable contraction had been obtained, tissues were exposed to a range of prostanoid receptor agonists, in the absence or presence of receptor antagonists, to determine the functional role of prostanoid receptors in maintaining arterial tone.

The target of the next test is T1, EP4 receptors (Sus scrofa, UniProt I3LLK4).
T1 construct: providing a natural source of the receptors, such as piglet saphenous vein; from tissue; host or cells: piglet saphenous vein rings
T1 sequence (I3LLK4 1-489): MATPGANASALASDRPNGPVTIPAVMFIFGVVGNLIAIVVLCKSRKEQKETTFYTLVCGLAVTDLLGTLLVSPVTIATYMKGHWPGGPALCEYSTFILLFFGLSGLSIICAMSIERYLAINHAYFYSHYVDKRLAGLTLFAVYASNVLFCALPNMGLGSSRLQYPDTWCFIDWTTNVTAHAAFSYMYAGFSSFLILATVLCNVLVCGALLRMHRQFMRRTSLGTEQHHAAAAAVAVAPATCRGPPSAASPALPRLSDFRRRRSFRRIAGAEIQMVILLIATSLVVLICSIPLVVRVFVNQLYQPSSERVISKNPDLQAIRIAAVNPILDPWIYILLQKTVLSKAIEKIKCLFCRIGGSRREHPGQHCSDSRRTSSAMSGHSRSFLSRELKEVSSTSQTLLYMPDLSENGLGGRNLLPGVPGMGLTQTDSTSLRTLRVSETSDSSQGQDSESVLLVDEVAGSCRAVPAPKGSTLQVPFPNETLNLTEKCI
Conditions: blockade of EP4 receptors; cited from earlier work.

For the next test, the target named is T2, EP3 (Homo sapiens, UniProt P43115).
T2 sequence (P43115 1-390): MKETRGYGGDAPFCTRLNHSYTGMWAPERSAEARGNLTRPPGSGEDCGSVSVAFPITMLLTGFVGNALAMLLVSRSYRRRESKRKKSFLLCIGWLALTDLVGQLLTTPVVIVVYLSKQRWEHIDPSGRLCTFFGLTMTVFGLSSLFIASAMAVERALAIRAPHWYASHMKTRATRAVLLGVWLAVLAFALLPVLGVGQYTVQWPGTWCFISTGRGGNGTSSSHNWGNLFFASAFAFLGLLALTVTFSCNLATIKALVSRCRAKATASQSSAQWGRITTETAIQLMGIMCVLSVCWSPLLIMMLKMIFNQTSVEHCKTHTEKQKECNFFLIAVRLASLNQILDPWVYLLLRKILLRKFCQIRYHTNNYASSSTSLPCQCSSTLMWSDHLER
The conditions noted are these: cited from earlier work.

The test system of another test is EP1. The conditions noted are these: cited from earlier work.
The next test addresses EP2 (Homo sapiens, UniProt P43116). Conditions: cited from earlier work.
A further test addresses T3, EP4 receptor (Homo sapiens, UniProt P35408).
T3 construct: Intact rings of this cerebral artery, 2-3 mm in length, were set up under isometric conditions; from tissue; host or cells: human middle cerebral artery rings (one donor)
In words: antagonism of PGE2-mediated relaxation of phenylephrine pre-contracted middle cerebral artery rings. The class given is cell-based. Conditions: 10 mM AH23848, 45 mins; P=0.004. How it is done: Sections of cerebral artery were removed from different regions of preparations of human cerebral vasculature containing an intact circle of Willis. […] Once a stable contraction had been obtained, tissues were exposed to a range of prostanoid receptor agonists, in the absence or presence of receptor antagonists, to determine the functional role of prostanoid receptors in maintaining arterial tone.
To test the effect of the EP4 receptor antagonist AH23848, cerebral rings were preincubated for 45 mins with 10 mM AH23848.

In the next test the test system is coronary artery. Kind of test: effect on pre-contracted coronary artery rings. Conditions: n=3 donors; for relaxation of coronary artery: tone induced with phenylephrine 1-10 μM or endothelin-1. The class given is cell-based, human. The procedure:
(§1) Rings (2-4 mm internal diameter) were prepared from sections of pulmonary or coronary artery (n=3 each). They were mounted in organ baths under isometric conditions, in gassed Krebs solution (containing indomethacin) at 37° C., and 1-1.5 g initial tone.

A further test concerns pulmonary artery. Kind of test: effect on pre-contracted pulmonary artery rings. The class given is cell-based, human. The conditions noted are these: tone induced with U-46619 10-100 nM; n=3 donors. How it is done: as §1

Sequence of EP2 (P43116 whole entry): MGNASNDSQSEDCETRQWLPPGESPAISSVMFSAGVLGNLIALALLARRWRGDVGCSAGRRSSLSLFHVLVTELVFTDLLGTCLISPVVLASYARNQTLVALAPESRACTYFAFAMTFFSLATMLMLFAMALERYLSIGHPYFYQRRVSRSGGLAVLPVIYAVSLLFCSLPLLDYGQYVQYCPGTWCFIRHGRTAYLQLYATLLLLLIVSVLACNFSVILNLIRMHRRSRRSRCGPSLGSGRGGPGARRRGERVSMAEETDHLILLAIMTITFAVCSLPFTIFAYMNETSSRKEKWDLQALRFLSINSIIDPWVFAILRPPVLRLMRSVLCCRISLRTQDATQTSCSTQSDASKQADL
T3 sequence (P35408 whole entry): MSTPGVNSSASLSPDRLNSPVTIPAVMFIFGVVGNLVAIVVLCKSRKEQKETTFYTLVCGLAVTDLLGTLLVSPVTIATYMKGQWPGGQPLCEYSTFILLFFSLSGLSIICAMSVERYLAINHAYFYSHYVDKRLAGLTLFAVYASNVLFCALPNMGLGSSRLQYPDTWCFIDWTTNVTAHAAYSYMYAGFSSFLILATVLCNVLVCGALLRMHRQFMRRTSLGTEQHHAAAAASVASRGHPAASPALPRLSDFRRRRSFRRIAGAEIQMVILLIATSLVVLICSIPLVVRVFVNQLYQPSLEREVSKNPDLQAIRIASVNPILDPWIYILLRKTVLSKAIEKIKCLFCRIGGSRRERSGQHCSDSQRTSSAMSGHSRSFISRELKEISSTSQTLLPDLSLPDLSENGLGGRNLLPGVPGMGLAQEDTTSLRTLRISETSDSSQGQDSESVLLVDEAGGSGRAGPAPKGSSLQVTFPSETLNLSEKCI

Consider `CCCCCC(O)c1ccc([C@@H]2CCC(=O)[C@H]2CCCCCCC(=O)O)cc1` (relative stereo) [AH13205, trans-2-(4-[1-hydroxyhexyl]phenyl)-5-oxocyclopentaneheptanoate], for which the “effect on smaller diameter cerebral artery rings contracted with phenylephrine, TP receptors blocked” value (from here on “effect … TP receptors blocked”) in test [1] is reported as “neither compound caused relaxation”.
Consider `O=C(O)CCC/C=C\C[C@@H]1C(N2CCOCC2)C(=O)C[C@@H]1OCc1ccc(-c2ccccc2)cc1` (stereo partly shown) [AH22921], for which, on EP4 receptors, the “pA2 against PGE2-induced relaxation of piglet saphenous vein” value is on record as 5.3. In addition, on EP3, the “effect on EP3 receptor subtype” value is listed as “no effect”. Moreover, the “effect on EP1 receptor subtype” value in the test on EP1 was “no effect”. The “effect on EP2 receptor subtype” value at EP2 is given as “no effect”.
With `O=C(O)CC/C=C\CC[C@@H]1C(N2CCOCC2)C(=O)C[C@@H]1OCc1ccc(-c2ccccc2)cc1` (stereo partly shown) [AH23848], the “pA2 against PGE2-induced relaxation of piglet saphenous vein” value at EP4 receptors is 5.4. The “effect on EP3 receptor subtype” value at EP3 is on record as “no effect”. For the same compound, in the test with EP1, the “effect on EP1 receptor subtype” value is recorded as “no effect”. The “effect on EP2 receptor subtype” value on EP2 was “no effect”. Besides, the “shift of PGE2-mediated relaxation curve” value at EP4 receptor was “significant rightward shift”.
As for `CCCC1([C@H](O)C/C=C/[C@H]2[C@H](O)CC(=O)[C@@H]2CCCCCCC(=O)OC)CCC1` [Butaprost], in test [1], the “effect … TP receptors blocked” value is “neither compound caused relaxation”.
The same measure, in the same setting: next, `CC#CCC(C)[C@H](O)/C=C/[C@@H]1[C@H]2C/C(=C/CCCC(=O)O)C[C@H]2C[C@H]1O` (stereo partly shown) [Iloprost]: “induced relaxation”.
Same read-out and setting: next, `CCCCC[C@H](O)/C=C/[C@H]1C(=O)C[C@H](O)[C@@H]1C/C=C\CCCC(=O)O` [PGD2]: “without effect”.
`CCCCC[C@H](O)/C=C/[C@H]1[C@H](O)CC(=O)[C@@H]1C/C=C\CCCC(=O)O` [PGE2, prostaglandin E2]: the “relaxation of cerebral artery rings pre-contracted with U46619 or 5-HT” value in test [1] (U46619 100 nM or 5-HT 300 nM and 1 μM, FIG. 2) is reported as “maximal or near maximal relaxation”. Further, the “effect of removal of the endothelium on the relaxant response” value in test [1] (human cerebral arteries) is “did not affect”. The “effect on smaller pre-contracted cerebral vessels” value in test [1] (internal diameter <1 mm, pre-contracted with phenylephrine) was “potent concentration-related relaxation”. Further, the “effect on larger cerebral vessels” value in test [1] (internal diameter >1 mm) is recorded as “concentration-related contraction”. Moreover, in test [1] (vessel pre-contracted with phenylephrine, FIG. 1), the “concentration at which maximum relaxation occurs” value is reported as “below 10^−6 M”. Further, in the test with coronary artery (pre-contracted preparations), the “contraction of coronary artery” value is “small contraction”. Moreover, the “relaxation of coronary artery” value in the test on coronary artery is listed as “did not cause relaxation”. In addition, the “relaxation of pulmonary artery” value with pulmonary artery is recorded as “did not cause relaxation”.
In the case of `CCCCC[C@H](O)/C=C/[C@@H]1[C@@H](C/C=C\CCCC(=O)O)[C@@H](O)C[C@H]1O` [PGF2α], in test [1], the “effect … TP receptors blocked” value is listed as “without effect”.
In the case of `CCC#CC[C@H](C)[C@H](O)C#C[C@@H]1[C@H]2C/C(=C/COCC(=O)O)C[C@H]2C[C@H]1O` [cicaprost], the “effect … TP receptors blocked” value in test [1] is given as “induced relaxation”. Further, the “relaxation of coronary artery” value with coronary artery was “induced a relaxation”. In addition, the “relaxation of pulmonary artery” value with pulmonary artery is “induced a relaxation”.
